Read-outs that look alike come from different tables or passages of the source. Each block holds one compound with its values, some of them ahead of it.
How the values were obtained:
[1] = UV absorbance spectra in protonated and deprotonated form (different pH, or before and after HCl); assay type: physicochemical; settings: FIGS. 1 to 4
Text: Methods to determine if a given sunscreen agent measurably changes its absorbance of UV radiation upon protonation or deprotonation will be readily available to the skilled person, but include a method summarised by the following steps. First, identify a suitable solvent for said sunscreen agent. Such a solvent may be hydrophilic (eg water or glycerine) organic/protic (eg ethanol, isopropanol or octanol), organic/polar aprotic (eg DMSO, acetonitrile or dichloromethane) or organic/unipolar (eg hexane, hexadecane or diethylether). Second, record the UV-Visible (200 nm-800 nm) absorbance spectra of a solution of the sunscreen agent using a suitable photospectrometer (such as a Beckmann DU-640 Spectrometer as described in the examples herein). Third, take an aliquot of the sunscreen UV filter solution and add a strong acid (eg trifluoroacetic acid, or hydrochloric acid, or perchloric acid) and record its UV-Visible absorbance spectra. Neutralize with a base (see next step) to check for reversibility and record the UV-Visible absorbance spectra again. Fourth, take another aliquot of the sunscreen UV filter solution and add a strong base (eg NaOH, KOH, Triethylamine, Tris(hydroxymethyl)aminomethane (TRIS)) and record its UV-Visible absorbance spectra. Neutralize with an acid (see previous step) to check for reversibility and record the resulting UV-Visible absorbance spectra. Fifth, repeat the above steps with (a) more than one acid, (b) more than one base and (c) more than one solvent to exclude artifacts from specific UV-filter-ion interactions, or specific UV-filter-solvent interactions. Conclusion: measureable changes in UV absorbance that are observed in one or more of such repeat experiments for a give sunscreen agent identify that such sunscreen agent is a suitable sunscreen agent for use in the context of the present invention.
The pH was adjusted with NaOH/HCl in aqueous solution.

[2] = Predicted SPF calculated from absorption spectra; assay type: physicochemical
Text: Predicted SPFs can be accurately determined from absorption spectra using standardized calculations based on the erythemal action spectrum, and such predicted SPFs correlate very well with in vivo determined SPFs. Corresponding algorithms for calculating SPF values are known in the art and corresponding computer programs are available; see, for example, http://www.sunscreensimulator.basf.com/Sunscreen_Simulator. Using the absorption spectrum shown in FIG. 2, the predicted SPF of a composition containing the deprotonated form of Padimate-O is approximately 10-fold higher than that of a composition containing the protonated form. With Benzophenone-4 (FIG. 1), the protonated form provides a composition having approximately 3 times the SPF as a composition containing the deprotonated form.

[3] = excited state after light absorption; cited from earlier work
[4] = cited from earlier work

- effect of protonation state on UV absorption [1]: largely inactive in its protonated form
Structure (SMILES): CCCCCCOC(=O)c1ccccc1C(=O)c1ccc(N(CC)CC)cc1O [2-(4-diethylamino-2-hydroxybenzoyl)-benzoic acid hexylester]

Structure (SMILES): COc1cc(O)c(C(=O)c2ccccc2)cc1S(=O)(=O)O [Benzophenone-4]
- SPF of composition with protonated form relative to deprotonated form ([2]; from absorption spectra of FIG. 1 (ethanol/water, pH 5 to 12)): approximately 3 times
- effect of protonation state on UV absorption [1]: protonated state being the from that absorbs more UVB radiation

Structure (SMILES): Oc1cccc2ccccc12 [Example 1-naphthol, 1-naphthol]
- pKa in the excited state [3]: 0.4

- effect of protonation state on UV absorption [1]: absorbs less UV radiation
Structure (SMILES): Nc1ccc(C(=O)O)cc1 [PABA, p-aminobenzoic acid]

Structure (SMILES): CCCCC(CC)COC(=O)c1ccc(N(C)C)cc1 (stereo not drawn) [Padimate-O, Ethylhexyl Dimethyl PABA]
- predicted SPF of composition with deprotonated form relative to protonated form ([2]; from absorption spectrum of FIG. 2 (acetonitrile, before/after equimolar HCl)): approximately 10 fold
- effect of protonation state on UV absorption [1]: shifts the absorption maximum of padimate-O from the UVB region to UVC

Structure (SMILES): COc1ccc(C(=O)c2ccccc2)c(O)c1 [oxybenzone]
- oxybenzone degraded ([4]; irradiation of oxybenzone and titanium dioxide, after 20 min of UV exposure): about 70%
- oxybenzone degraded ([4]; solution containing oxybenzone alone, after 260 min): 50%

— patent US20120148647A1, “Photoresponsive Sunscreen Composition” (Blueshift Pharma GmbH, priority 2009, published 2012)
